Here are results for twelve compounds from US4948782A, “A method of promoting the growth of domestic animals with erythromycin derivative containing composition” (Kitasato Kenkyusho, priority 1987, dated 1990).

The test system of one test is Clostridium perfringens. It counts as in vivo.
The next test relates to cockerels of broilers. The experiment in a line: Survival rate and growing rate of cockerels of broilers fed the compound in rye-rations for 14 days. The format is in vivo, cockerels of broilers (Habbard). Conditions: for Gain (Ratio): control = 100.0; for Gain: mean. How it is done:
The feeds prepared by adding 0, 1.0, 10.0 and 100.0 ppm of 8,9-anhydroerythromycin A 6,9-hemiketal propargyl chloride respectively to rye-rations, were given to 160 cockerels of broilers (Habbard) of day zero, as 10 cockerels/group×4 repeats/ section, and allowed to be taken freely and continuously for 14 days. The cockerels were positioned to be accommodated for each groups by the Latin square method in an electrically heated battery brooder (the inside thereof is heated at a temperature of 32° C.). The survival rate and the growing rate were measured at 7 and 14 days of age.
Experimental Example 2 was repeated except for changing the administration compound to ethyl-nor-8,9-anhydroerythromycin A 6,9-hemiketal. The result of measuring the survival rate and the growing rate in cockerals of broilers (Habbard) of day zero was shown in Table 8.

The test system of test [1] is Klebsiella pneumoniae ATCC 10031. The experiment in a line: MIC, Klebsiella pneumoniae ATCC 10031 (KP). The following applies: ATCC10031; Klebsiella pneumoniae ATCC 10031; read-out: MIC KP. The format is cell-based.
For another test, the system named is Bacillus cereus IFO 3001. Kind of test: MIC, Bacillus cereus IFO 3001 (BC). The format is cell-based. The following applies: Bacillus cereus, IFO3001, Bacillus cereus IFO 3001; read-out: MIC BC.
In test [2] the test system is Staphylococcus aureus FDA 209P. Kind of test: MIC, Staphylococcus aureus FDA 209P (SA(2)). The format is cell-based. Conditions: Staphylococcus aureus, FDA209P, Staphylococcus aureus FDA 209P; read-out: MIC SA (2). From the text:
(§1) The minimum inhibitory concentrations (MIC: mcg/ml) of the erythromycin derivatives of the present invention and the control erythromycin derivative (*) as the known growth promoting agent on typical test bacteria are shown in the following Tables 1 to 5.
SA(2): Staphylococcus aureus FDA 209P

For test [3], the system named is Staphylococcus aureus ATCC 6538P. The experiment in a line: MIC, Staphylococcus aureus ATCC 6538P (SA(1)). It counts as cell-based. Conditions: Staphylococcus aureus, ATCC6538P, Staphylococcus aureus ATCC 6538P; read-out: MIC SA (1).
Description: as §1
SA(1): Staphylococcus aureus ATCC 6538P

A further test relates to Bacillus subtilis. Kind of test: MIC, Bacillus subtilis (BS). It counts as cell-based. Conditions: read-out: MIC BS.
A further test has as its system Escherichia coli NIHJ. The experiment in a line: MIC, Escherichia coli NIHJ (EC). The format is cell-based.

For orientation: MIC means the least concentration at which growth counts as inhibited.

Read-outs that look alike come from different tables or passages of the source.

As for `C#CC[N+](C)(C)[C@H]1C[C@@H](C)O[C@@H](O[C@@H]2[C@@H](C)[C@H](O[C@H]3C[C@@](C)(OC)[C@@H](O)[C@H](C)O3)[C@@H](C)C(=O)O[C@H](CC)[C@@](C)(O)[C@H](O)[C@@H](C)C3=C(C)C[C@@]2(C)O3)[C@@H]1O` [8,9-anhydroerythromycin A 6,9-hemiketal propargyl chloride], the “Number of Cl. perfringens” value in the test on Clostridium perfringens (1.0 ppm (section 2), day 0) came to 2.0 log CFU/g; in the test with Clostridium perfringens (1.0 ppm (section 2), day 7) it was 6.1 log CFU/g; with Clostridium perfringens (10.0 ppm (section 3), day 0), 2.0 log CFU/g; with Clostridium perfringens (10.0 ppm (section 3), day 7), 4.9 log CFU/g; in the test on Clostridium perfringens (100.0 ppm (section 4), day 0), 2.0 log CFU/g; in the test with Clostridium perfringens (100.0 ppm (section 4), day 7) it was 6.2 log CFU/g. Also, the Survival rate in the test on cockerels of broilers (1.0 ppm in feed, 0-7 days) was 97.5%; in the test with cockerels of broilers (1.0 ppm in feed, 0-14 days) it was 97.5%; in the test on cockerels of broilers (10.0 ppm in feed, 0-7 days), 100.0%; with cockerels of broilers (10.0 ppm in feed, 0-14 days) it was 100.0%; in the test on cockerels of broilers (100.0 ppm in feed, 0-7 days), 100.0%; with cockerels of broilers (100.0 ppm in feed, 0-14 days), 100.0%. In addition, the “Gain (Ratio)” value in the test on cockerels of broilers (1.0 ppm in feed, 0-7 days) is 105.7; in the test with cockerels of broilers (1.0 ppm in feed, 0-14 days) it was 105.3; in the test with cockerels of broilers (10.0 ppm in feed, 0-7 days), 105.0; in the test on cockerels of broilers (10.0 ppm in feed, 0-14 days) it was 103.7; in the test with cockerels of broilers (100.0 ppm in feed, 0-7 days), 111.4; in the test with cockerels of broilers (100.0 ppm in feed, 0-14 days) it was 107.4. For the same compound, the Gain is 84.1 g/cockerel in the test on cockerels of broilers (1.0 ppm in feed, 0-7 days); 258.2 g/cockerel in the test on cockerels of broilers (1.0 ppm in feed, 0-14 days); 83.5 g/cockerel in the test with cockerels of broilers (10.0 ppm in feed, 0-7 days); 254.3 g/cockerel with cockerels of broilers (10.0 ppm in feed, 0-14 days); 88.6 g/cockerel in the test on cockerels of broilers (100.0 ppm in feed, 0-7 days); 263.3 g/cockerel with cockerels of broilers (100.0 ppm in feed, 0-14 days).
For `C#CC[N+](C)(C)[C@H]1C[C@@H](C)O[C@@H](O[C@@H]2[C@@H](C)[C@H](O[C@H]3C[C@@](C)(OC)[C@@H](O)[C@H](C)O3)[C@@H](C)C(=O)O[C@H](CC)[C@@](C)(O)[C@H](O)[C@@H](C)C3O[C@]2(C)CC3C)[C@@H]1OC(C)=O` (stereo partly drawn) [Compound 68], the MIC (in test [1]; with Bacillus cereus IFO 3001; in test [2]; in test [3]; in the test on Bacillus subtilis; in the test on Escherichia coli NIHJ) was > 100 µg/mL throughout.
On to `CC[C@H]1OC(=O)[C@H](C)[C@@H](O[C@H]2C[C@@](C)(OC)[C@@H](O)[C@H](C)O2)[C@H](C)[C@@H](O[C@@H]2O[C@H](C)C[C@H](N(C)CC)[C@H]2O)[C@@]2(C)CC(C)C(O2)[C@H](C)[C@@H](O)[C@]1(C)O` (stereo partly drawn) [Compound 69], for which the minimal inhibitory concentration (MIC) (in test [1]; in the test on Bacillus cereus IFO 3001; in test [2]; in test [3]; with Bacillus subtilis; against Escherichia coli NIHJ) was > 100 µg/mL in each case.
Regarding `CC[C@H]1OC(=O)[C@H](C)[C@@H](O[C@H]2C[C@@](C)(OC)[C@@H](O)[C@H](C)O2)[C@H](C)[C@@H](O[C@@H]2O[C@H](C)C[C@H]([N+](C)(C)C)[C@H]2O)[C@@]2(C)CC(C)C3(O[C@@]1(C)[C@H](O)[C@H]3C)O2` (stereo partly drawn) [Compound 70], the MIC (in test [1]; in the test with Bacillus cereus IFO 3001; in test [2]; in test [3]; with Bacillus subtilis; in the test with Escherichia coli NIHJ) was > 100 µg/mL in each case.
`CC[C@H]1OC(=O)[C@H](C)[C@@H](O[C@H]2C[C@@](C)(OC)[C@@H](O)[C@H](C)O2)[C@H](C)[C@@H](O[C@@H]2O[C@H](C)C[C@H]([N+](C)(C)CC)[C@H]2O)[C@@]2(C)CC(C)C3(O[C@@]1(C)[C@H](O)[C@H]3C)O2` (stereo partly drawn) [Compound 71]: the MIC was > 100 µg/mL in test [1]; 100 µg/mL in the test on Bacillus cereus IFO 3001; > 100 µg/mL in test [2]; > 100 µg/mL in test [3]; 100 µg/mL with Bacillus subtilis; > 100 µg/mL with Escherichia coli NIHJ.
Turning to `CCC[N+](C)(C)[C@H]1C[C@@H](C)O[C@@H](O[C@@H]2[C@@H](C)[C@H](O[C@H]3C[C@@](C)(OC)[C@@H](O)[C@H](C)O3)[C@@H](C)C(=O)O[C@H](CC)[C@@]3(C)OC4(O[C@]2(C)CC4C)[C@H](C)[C@H]3O)[C@@H]1O` (stereo partly drawn) [Compound 72], the MIC (in test [1]; in the test on Bacillus cereus IFO 3001; in test [2]; in test [3]; in the test with Bacillus subtilis; against Escherichia coli NIHJ) was > 100 µg/mL each time.
Consider `CC[C@H]1OC(=O)[C@H](C)[C@@H](O[C@H]2C[C@@](C)(OC)[C@@H](O)[C@H](C)O2)[C@H](C)[C@@H](O[C@@H]2O[C@H](C)C[C@H]([N+](C)(C)Cc3ccccc3)[C@H]2O)[C@@]2(C)CC(C)C3(O[C@@]1(C)[C@H](O)[C@H]3C)O2` (stereo partly drawn) [Compound 73], for which the MIC (in test [1]; with Bacillus cereus IFO 3001; in test [2]; in test [3]; with Bacillus subtilis; against Escherichia coli NIHJ) was > 100 µg/mL throughout.
For the compound `CC[C@H]1OC(=O)[C@H](C)[C@@H](O[C@H]2C[C@@](C)(OC)[C@@H](O)[C@H](C)O2)[C@H](C)[C@@H](O[C@@H]2O[C@H](C)C[C@H]([N+](C)(C)CC)[C@H]2O)[C@@]2(C)CC(C)=C(O2)[C@H](C)[C@@H](O)C1C` (stereo partly drawn) [Compound 74], the MIC was > 100 µg/mL in test [1]; 100 µg/mL in the test on Bacillus cereus IFO 3001; 100 µg/mL in test [2]; 100 µg/mL in test [3]; > 100 µg/mL in the test with Bacillus subtilis; > 100 µg/mL with Escherichia coli NIHJ.
Turning to `C#CC[N+](C)(C)[C@H]1C[C@@H](C)O[C@@H](O[C@@H]2[C@@H](C)[C@H](O[C@H]3C[C@@](C)(OC)[C@@H](O)[C@H](C)O3)[C@@H](C)C(=O)O[C@H](CC)C(C)[C@H](O)[C@@H](C)C3=C(C)C[C@@]2(C)O3)[C@@H]1O` (stereo partly drawn) [Compound 75], the MIC was > 100 µg/mL in test [1]; 100 µg/mL with Bacillus cereus IFO 3001; 100 µg/mL in test [2]; 100 µg/mL in test [3]; 100 µg/mL with Bacillus subtilis; > 100 µg/mL in the test on Escherichia coli NIHJ.
For `CC[C@H]1OC(=O)[C@H](C)[C@@H](O[C@H]2C[C@@](C)(OC)[C@@H](O)[C@H](C)O2)[C@H](C)[C@@H](O[C@@H]2O[C@H](C)C[C@H]([N+](C)(C)CC)[C@H]2O)[C@](C)(O)C[C@@H](C)C(=O)[C@H](C)[C@@H](O)[C@]1(C)O` [Compound 76], the MIC in test [1] is > 100 µg/mL; in the test with Bacillus cereus IFO 3001, 6.25 µg/mL; in test [2] it was 12.5 µg/mL; in test [3] it was 6.25 µg/mL; in the test with Bacillus subtilis, < 3.12 µg/mL; against Escherichia coli NIHJ it was > 100 µg/mL.
Take `C=CC[N+](C)(C)[C@H]1C[C@@H](C)O[C@@H](O[C@@H]2[C@@H](C)[C@H](O[C@H]3C[C@@](C)(OC)[C@@H](O)[C@H](C)O3)[C@@H](C)C(=O)O[C@H](CC)[C@@](C)(O)[C@H](O)[C@@H](C)C(=O)[C@H](C)C[C@@]2(C)O)[C@@H]1O` [Compound 77]: the MIC in test [1] was > 100 µg/mL; in the test on Bacillus cereus IFO 3001, 12.5 µg/mL; in test [2], 50 µg/mL; in test [3], 25 µg/mL; with Bacillus subtilis it was 12.5 µg/mL; with Escherichia coli NIHJ, > 100 µg/mL.
Regarding `C#CC[N+](C)(C)[C@H]1C[C@@H](C)O[C@@H](O[C@@H]2[C@@H](C)[C@H](O[C@H]3C[C@@](C)(OC)[C@@H](O)[C@H](C)O3)[C@@H](C)C(=O)O[C@H](CC)[C@@](C)(O)[C@H](O)[C@@H](C)C(=O)[C@H](C)C[C@@]2(C)O)[C@@H]1O` [Compound 78], the minimum inhibitory concentration (MIC) was > 100 µg/mL in test [1]; 6.25 µg/mL in the test on Bacillus cereus IFO 3001; 25 µg/mL in test [2]; 12.5 µg/mL in test [3]; 6.25 µg/mL with Bacillus subtilis; > 100 µg/mL in the test with Escherichia coli NIHJ.
